pIC50: −log10 of the molar value.

In general, pIC50 refers to −log10 of the IC50, conventionally taken in molar units. Higher therefore signals a low IC50. Broadly, the inhibition is how much of the control response was suppressed.

Assay type in all cases: biochemical
Test [1] concerns the target T1, β-Glucuronidase (Escherichia coli, UniProt P05804).
T1 construct: purchased Sigma-Aldrich Chemical Co
The experiment in a line: glycosidase inhibition assay, E. coli β-glucuronidase. The protocol: (§1) With rat intestinal maltase as an exception, other enzymes were purchased from Sigma-Aldrich Chemical Co. (St. Louis, Mo. USA). Brush border membranes prepared from rat small intestine according to the method of Kessler et al. were assayed at pH 6.8 for rat intestinal maltase using maltose. The released D-glucose was determined colorimetrically using the Glucose CII-test Wako (Wako Pure Chemical Ind.; Osaka, Japan). Other glycosidase activities were determined using an appropriate p-nitrophenyl glycoside as substrate in a buffer solution at the optimal pH value of each enzyme. The reaction was stopped by adding 400 mM Na2CO3. The released p-nitrophenol was measured spectrometrically at 400 nm.

Test [2] deals with β-Glucosidase. Description: glycosidase inhibition assay, almond β-glucosidase. The note with it: for inhibition %: at 100 μM. How it is done:
as §1

Test [3] has as its target T2, Amyloglucosidase (Aspergillus niger, UniProt P69328).
T2 construct: purchased Sigma-Aldrich Chemical Co
The experiment in a line: glycosidase inhibition assay, A. niger amyloglucosidase. The protocol:
as §1

Test [4] deals with T3, α-Glucosidase (Saccharomyces cerevisiae, UniProt P53341).
T3 construct: purchased Sigma-Aldrich Chemical Co
T3 sequence (P53341 whole entry): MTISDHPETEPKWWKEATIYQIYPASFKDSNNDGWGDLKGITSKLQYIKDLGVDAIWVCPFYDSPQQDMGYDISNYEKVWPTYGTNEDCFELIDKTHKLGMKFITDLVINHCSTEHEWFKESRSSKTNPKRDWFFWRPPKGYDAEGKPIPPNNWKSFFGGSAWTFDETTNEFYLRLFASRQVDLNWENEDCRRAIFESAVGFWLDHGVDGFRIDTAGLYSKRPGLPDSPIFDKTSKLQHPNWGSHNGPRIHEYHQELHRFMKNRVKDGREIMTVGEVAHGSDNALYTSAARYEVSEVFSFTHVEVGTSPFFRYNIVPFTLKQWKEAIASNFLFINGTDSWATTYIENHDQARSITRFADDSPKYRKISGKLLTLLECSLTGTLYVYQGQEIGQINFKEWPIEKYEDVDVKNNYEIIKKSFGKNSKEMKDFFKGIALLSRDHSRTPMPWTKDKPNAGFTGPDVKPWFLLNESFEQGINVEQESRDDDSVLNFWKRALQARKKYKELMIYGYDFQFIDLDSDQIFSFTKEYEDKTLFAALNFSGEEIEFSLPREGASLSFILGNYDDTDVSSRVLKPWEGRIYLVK
Description: glycosidase inhibition assay, yeast α-glucosidase. The note with it: for pIC50: α-Glucosidase, Yeast. How it is done: as §1

In test [5] the target is β-Galactosidase. Description: glycosidase inhibition assay, bovine liver β-galactosidase. The protocol:
as §1

The target of test [6] is T4, α-Galactosidase (Coffea arabica, UniProt Q42656).
T4 construct: purchased Sigma-Aldrich Chemical Co
T4 sequence (Q42656 16-378): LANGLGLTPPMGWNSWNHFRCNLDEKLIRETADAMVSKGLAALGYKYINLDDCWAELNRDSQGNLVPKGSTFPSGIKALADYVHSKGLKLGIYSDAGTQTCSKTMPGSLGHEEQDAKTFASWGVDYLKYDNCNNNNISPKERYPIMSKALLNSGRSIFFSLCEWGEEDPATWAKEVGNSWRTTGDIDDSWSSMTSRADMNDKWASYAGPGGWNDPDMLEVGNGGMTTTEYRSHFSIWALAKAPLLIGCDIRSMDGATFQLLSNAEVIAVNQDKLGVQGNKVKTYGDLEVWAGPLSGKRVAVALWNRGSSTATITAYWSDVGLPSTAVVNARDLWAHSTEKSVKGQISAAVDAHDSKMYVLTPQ
Description: glycosidase inhibition assay, coffee beans α-galactosidase. As to conditions: for pIC50: α-Galactosidase, Coffee beans. How it is done:
as §1

The target of test [7] is T5, β-Glucuronidase (Bos taurus, UniProt A3KMY8).
T5 construct: purchased Sigma-Aldrich Chemical Co; host or cells: bovine liver
T5 sequence (A3KMY8 1-652): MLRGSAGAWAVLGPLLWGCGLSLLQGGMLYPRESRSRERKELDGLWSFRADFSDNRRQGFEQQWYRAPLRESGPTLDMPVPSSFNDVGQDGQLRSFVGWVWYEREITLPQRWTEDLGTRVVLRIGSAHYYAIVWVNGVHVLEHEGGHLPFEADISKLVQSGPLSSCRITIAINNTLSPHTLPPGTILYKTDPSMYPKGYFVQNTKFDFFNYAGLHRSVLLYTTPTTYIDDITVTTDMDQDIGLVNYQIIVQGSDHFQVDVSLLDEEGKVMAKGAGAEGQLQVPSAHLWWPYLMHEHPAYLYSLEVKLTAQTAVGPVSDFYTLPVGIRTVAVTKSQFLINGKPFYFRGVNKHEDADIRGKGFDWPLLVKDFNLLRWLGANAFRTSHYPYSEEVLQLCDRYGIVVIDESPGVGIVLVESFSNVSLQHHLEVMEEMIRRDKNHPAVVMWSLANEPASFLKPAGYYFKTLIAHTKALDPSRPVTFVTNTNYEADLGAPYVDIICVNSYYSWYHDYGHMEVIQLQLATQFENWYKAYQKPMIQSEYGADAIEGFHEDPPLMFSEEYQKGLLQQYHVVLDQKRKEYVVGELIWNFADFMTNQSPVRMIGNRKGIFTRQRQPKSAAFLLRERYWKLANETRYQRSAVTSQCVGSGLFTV
The experiment in a line: glycosidase inhibition assay, bovine liver β-glucuronidase. As to conditions: for pIC50: β-Glucuronidase, Bovine liver. How it is done: as §1

Test [8] concerns the target β-Mannosidase. The experiment in a line: glycosidase inhibition assay, snail β-mannosidase. As to conditions: for inhibition %: at 100 μM. How it is done: as §1
Test [9] addresses T6, α-L-Rhamnosidase (Penicillium decumbens, UniProt S7ZS15).
T6 sequence (S7ZS15 1-894): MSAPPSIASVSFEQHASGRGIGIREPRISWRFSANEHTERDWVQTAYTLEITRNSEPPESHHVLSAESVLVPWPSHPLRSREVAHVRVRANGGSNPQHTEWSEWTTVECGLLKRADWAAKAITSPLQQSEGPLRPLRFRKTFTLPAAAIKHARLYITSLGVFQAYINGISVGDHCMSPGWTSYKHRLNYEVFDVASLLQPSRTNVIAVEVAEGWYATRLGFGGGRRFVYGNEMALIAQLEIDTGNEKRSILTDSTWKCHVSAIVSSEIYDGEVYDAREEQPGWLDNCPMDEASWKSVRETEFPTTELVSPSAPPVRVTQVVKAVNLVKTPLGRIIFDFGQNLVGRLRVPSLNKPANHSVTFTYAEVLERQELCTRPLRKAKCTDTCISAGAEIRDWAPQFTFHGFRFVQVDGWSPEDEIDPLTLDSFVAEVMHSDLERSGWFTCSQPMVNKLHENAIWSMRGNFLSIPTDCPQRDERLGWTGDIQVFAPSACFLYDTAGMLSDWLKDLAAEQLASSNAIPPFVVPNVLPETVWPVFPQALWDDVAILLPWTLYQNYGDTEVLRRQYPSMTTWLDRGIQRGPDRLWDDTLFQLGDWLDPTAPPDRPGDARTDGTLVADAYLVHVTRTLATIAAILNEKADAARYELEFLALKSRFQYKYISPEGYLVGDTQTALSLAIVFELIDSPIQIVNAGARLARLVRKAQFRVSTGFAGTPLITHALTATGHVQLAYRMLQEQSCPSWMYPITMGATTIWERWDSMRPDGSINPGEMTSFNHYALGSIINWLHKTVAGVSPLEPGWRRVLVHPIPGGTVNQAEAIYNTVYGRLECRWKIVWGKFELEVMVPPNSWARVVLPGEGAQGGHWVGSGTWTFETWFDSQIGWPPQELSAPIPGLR
The experiment in a line: glycosidase inhibition assay, P. decumbens α-L-rhamnosidase. How it is done: as §1

T2 sequence (P69328 25-640): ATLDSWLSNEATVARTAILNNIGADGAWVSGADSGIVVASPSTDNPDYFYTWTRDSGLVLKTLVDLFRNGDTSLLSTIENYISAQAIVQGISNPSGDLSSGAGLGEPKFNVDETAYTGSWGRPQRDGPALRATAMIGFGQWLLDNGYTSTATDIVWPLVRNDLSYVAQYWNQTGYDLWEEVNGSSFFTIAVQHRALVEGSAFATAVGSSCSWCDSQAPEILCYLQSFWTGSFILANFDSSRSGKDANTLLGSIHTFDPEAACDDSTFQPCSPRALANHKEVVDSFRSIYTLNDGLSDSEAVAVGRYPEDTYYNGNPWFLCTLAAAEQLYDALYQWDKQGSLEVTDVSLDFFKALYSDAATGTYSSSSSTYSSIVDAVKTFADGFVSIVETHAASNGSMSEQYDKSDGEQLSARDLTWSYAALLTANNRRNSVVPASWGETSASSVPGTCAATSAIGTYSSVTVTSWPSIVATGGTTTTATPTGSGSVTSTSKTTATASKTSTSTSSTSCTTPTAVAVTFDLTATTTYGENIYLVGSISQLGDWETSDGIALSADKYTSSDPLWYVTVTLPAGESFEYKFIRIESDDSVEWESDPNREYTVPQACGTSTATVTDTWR
T1 sequence (P05804 whole entry): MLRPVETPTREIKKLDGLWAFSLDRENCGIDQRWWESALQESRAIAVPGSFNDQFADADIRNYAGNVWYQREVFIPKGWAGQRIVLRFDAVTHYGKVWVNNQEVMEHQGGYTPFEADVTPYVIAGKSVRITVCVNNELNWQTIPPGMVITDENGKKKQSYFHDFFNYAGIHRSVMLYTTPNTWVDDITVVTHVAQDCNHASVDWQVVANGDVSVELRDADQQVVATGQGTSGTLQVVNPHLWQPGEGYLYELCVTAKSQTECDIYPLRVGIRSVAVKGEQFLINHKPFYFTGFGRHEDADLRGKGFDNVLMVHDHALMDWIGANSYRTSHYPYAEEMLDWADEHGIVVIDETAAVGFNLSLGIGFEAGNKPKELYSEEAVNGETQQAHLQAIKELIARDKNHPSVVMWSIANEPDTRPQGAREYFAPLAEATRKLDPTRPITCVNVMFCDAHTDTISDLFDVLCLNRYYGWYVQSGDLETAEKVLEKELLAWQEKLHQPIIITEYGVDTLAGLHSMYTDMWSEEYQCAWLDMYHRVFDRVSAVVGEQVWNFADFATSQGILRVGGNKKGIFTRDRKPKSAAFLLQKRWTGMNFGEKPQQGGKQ

As for `OCCC[C@H](O)CCCCCCCCC[C@@H]1N[C@@H](CO)[C@H](O)[C@H]1O` [ent-3, (2S,3S,4S,5S)-2-hydroxymethyl-3,4-dihydroxyl-5-((10S)-10,13-(dihydroxyl)dec-1-yl) pyrrolidine], the pIC50 in test [1] is less than 4.00; in [2], less than 4.00; in test [3], less than 4.00; in test [4], less than 4.00; in test [5] it was 4.30; in test [6] it was less than 4.00. For the same molecule, the pIC50 in test [7] and in test [8] was less than 4.00 each time. For the same molecule, the inhibition at 100 µM in [1] turned out to be 44.3%; in test [3], 0%; in test [4], 1.9%; in test [6], 0.3%; in test [7], 2.3%; in test [9] it was 13.3%. Besides, the inhibition % in test [2] is 9.6%; in [8] it was 0%.
Take `OCCC[C@@H](O)CCCCCCCCC[C@@H]1N[C@@H](CO)[C@H](O)[C@H]1O` [ent-10’-epi-3]: the pIC50 in test [1] is less than 4.00; in test [2] it was less than 4.00; in test [3], less than 4.00; in test [4] it was less than 4.00; in test [5], 5.05; in [6] it was less than 4.00. Also, the pIC50 in test [7] and in test [8] was less than 4.00 throughout. The inhibition at 100 µM in test [1] is 36.2%; in [3], 6.1%; in test [4], 1.9%; in test [6] it was 12.2%; in [7], 14.9%; in test [9], 1.8%. The inhibition % in test [2] was 8.0%; in test [8], 2.0%.
`OCCC[C@H](O)CCCCCCCCC[C@@H]1N[C@@H](CO)[C@@H](O)[C@H]1O` [ent-3-epi-3, (2S,3R,4S,5S)-2-hydroxymethyl-3,4-dihydroxyl-5-((10S)-10,13-(dihydroxyl)dec-1-yl) pyrrolidine]: the negative logarithm of the IC50 (pIC50) is less than 4.00 in test [1]; less than 4.00 in test [2]; less than 4.00 in [3]; less than 4.00 in [4]; 4.39 in test [5]; less than 4.00 in test [6]. Also, the negative logarithm of the IC50 (pIC50) in test [7] and in test [8] was less than 4.00 in each case. Further, the inhibition at 100 µM came out at 28.7% in [1]; 0% in test [3]; 0% in [4]; 0% in test [6]; 0% in test [7]; 15.2% in test [9]. Also, the inhibition % stood at 4.6% in [2] and 0% in [8].
On to `OCCCC(O)CCCCCCCCCC1NC(CO)C(O)C1O` [2,10-di-epi-3, (2S,3R,4R,5R)-2-hydroxymethyl-3,4-dihydroxyl-5-((10S)-10,13-(dihydroxyl)dec-1-yl) pyrrolidine], for which the negative-log IC50 (pIC50) in test [1] was 4.10; in [2] it was less than 4.00; in test [3] it was less than 4.00; in [4], less than 4.00; in test [5], 4.89; in [6], less than 4.00. The pIC50 in test [7] and in test [8] was less than 4.00 throughout. In addition, the values for the inhibition % in test [2] and in [8] were 10.9% and 0%, respectively. The inhibition at 100 µM came to 6.8% in test [3]; 3.2% in test [4]; 0% in test [6]; 1.7% in test [7]; 4.7% in test [9].
Turning to `OCCC[C@H](O)CCCCCCCCC[C@H]1N[C@H](CO)[C@@H](O)[C@@H]1O` [10’-epi-3, (2R,3R,4R,5R)-2-hydroxymethyl-3,4-dihydroxyl-5-((10S)-10,13-(dihydroxyl)dec-1-yl) pyrrolidine], the pIC50 in [1] was 4.70; in test [2], less than 4.00; in test [3], less than 4.00; in test [4], less than 4.00; in test [5], 6.70; in test [6] it was less than 4.00. The pIC50 in test [7] and in test [8] was less than 4.00 each time. Also, the inhibition % is recorded as 29.1% in [2] and 0% in test [8]. The inhibition at 100 µM came out at 36.5% in test [3]; 4.6% in [4]; 0% in [6]; 17.2% in test [7]; 4.7% in [9].
As for `OCCC[C@@H](O)CCCCCCCCC[C@H]1N[C@H](CO)[C@@H](O)[C@@H]1O` [compound 3, (2R,3R,4R,5R)-2-hydroxymethyl-3,4-dihydroxyl-5-((10R)-10,13-(dihydroxyl)dec-1-yl)pyrrolidine], the pIC50 was 4.07 in [1]; less than 4.00 in test [2]; less than 4.00 in [3]; less than 4.00 in [4]; 5.64 in test [5]; less than 4.00 in test [6]. Also, the negative logarithm of the IC50 (pIC50) in [7] and in test [8] was less than 4.00 throughout. Also, the inhibition % in test [2] was 10.0%; in [8], 1.7%. The inhibition at 100 µM is 3.8% in test [3]; 2.6% in test [4]; 0% in test [6]; 18.4% in test [7]; 6.1% in [9].
In the case of `OCCC[C@@H](O)CCCCCCCCC[C@H]1N[C@@H](CO)[C@@H](O)[C@@H]1O` [2-epi-3, (2S,3R,4R,5R)-2-hydroxymethyl-3,4-dihydroxyl-5-((10R)-10,13-(dihydroxyl)dec-1-yl) pyrrolidine], the pIC50 in test [1] is 4.14; in test [2], less than 4.00; in test [3], less than 4.00; in test [4] it was less than 4.00; in test [5] it was 5.13; in test [6], less than 4.00. For the same molecule, the pIC50 in test [7] and in test [8] was less than 4.00 each time. Moreover, the values for the inhibition % in test [2] and in test [8] were 8.6% and 0%, respectively. Also, the inhibition at 100 µM was determined as 3.8% in test [3]; 1.6% in [4]; 0% in test [6]; 5.2% in [7]; 3.3% in test [9].
With `OCCC[C@@H](O)CCCCCCCCC[C@@H]1N[C@@H](CO)[C@@H](O)[C@H]1O` [ent-3,10-di-epi-3], the pIC50 is 4.38 in test [1]; less than 4.00 in test [2]; less than 4.00 in test [3]; less than 4.00 in test [4]; 4.51 in [5]; less than 4.00 in test [6]. Also, the pIC50 in [7] and in [8] was less than 4.00 each time. For the same molecule, the inhibition % in [2] turned out to be 7.3%; in test [8], 2.3%. Moreover, the inhibition at 100 µM is 0% in [3]; 6.6% in [4]; 0% in [6]; 14.9% in test [7]; 11.4% in test [9].

Source of the values: PMC6832352, “Synthesis and Glycosidase Inhibition of Broussonetine M and Its Analogues” (Molecules, 2019).
